# Test results reported in the COVID Moonshot data (paper PMC7615835).
# Several values for one entry are separate records, joined by “and”; a condition that tells them apart may be missing. Equal entries are not always repeated.
# Biological target: SARS-CoV-2 Main Protease (SARS-CoV-2) (UniProt P0DTD1)
row,SMILES,IC50
1,CC1NCCn2c(-c3nc(-c4cnc5cnccn45)no3)ccc21 (stereo not given),> 99.5 µM
2,CNC(=O)CN1CC(C)(C(=O)Nc2cncc3ccccc23)c2cc(Cl)ccc2C1=O (stereo not given),0.128 µM and 0.214 µM
3,O=C1CCCN(S(=O)(=O)c2cccc(F)c2)CC1,> 99.5 µM
4,O=C(Cc1cccc(Cl)c1)Nc1cncn1-c1ccccc1,> 99.5 µM
5,COC1(C(=O)Nc2cncc3ccncc23)CCOc2ccc(Cl)cc21 (stereo not given),0.832 µM
6,CC(=O)Nc1ccc(Nc2cc(Cl)cc(CC(=O)Nc3cncc4ccccc34)c2)c(C(F)(F)F)c1,2.09 µM
7,CC(C)(C(N)=O)c1ccc(N(Cc2ccsc2)C(=O)Cn2nnc3ccccc32)cc1,3.17 µM
8,O=C(Cc1cccc(Cl)c1)Nc1cn[nH]c1,> 99.5 µM
9,C#CCCCC(=O)N[C@@H](CC)C(=O)N[C@H](C(=O)N[C@@H](CC(C)C)C(=O)N[C@@H](CCC(=O)N(C)C)C(=O)COC(=O)c1c(C)cccc1C)C(C)(C)C (stereo in doubt),5.77 µM and 5.83 µM
10,CC(C)c1cc(N(C(=O)c2ccco2)C(C(=O)NCCc2cccc(F)c2)c2cccnc2)ccc1C(F)(F)F (stereo not given),> 99.5 µM
11,CC(C)(C)c1ccc(N(C(=O)C2CCCN2)C(C(=O)NCCc2cccc(F)c2)c2cccnc2)cc1 (stereo not given),> 99.5 µM
12,CC(C)(C)c1ccc(N(C(=O)c2ccco2)C(C(=O)NCCN2CCOCC2)c2cccnc2)cc1 (stereo not given),2.19 µM
13,NC(=O)c1ccncc1NC(=O)Cc1cccc(Cl)c1,> 99.5 µM
14,CC(NC(=O)Nc1ccn2ccnc2c1)c1ccc2[nH]c(=O)oc2c1 (stereo not given),> 99.5 µM
15,NCc1cn(CC(=O)N(Cc2cscn2)c2ccc(-c3ccccc3)nc2)nn1,> 99.5 µM
16,Cc1ccncc1NC(=O)CCc1cccc(F)c1,58.5 µM
17,O=C(Nc1cccnc1)N1CCC(CN2CCc3ccccc32)CC1,> 99.5 µM
18,O=C(Cc1cccc(Cl)c1)Nc1cncc2cc(F)cc(Cl)c12,0.718 µM
19,O=C(Cc1cc(Cl)cc(Nc2ccc(N3CCOCC3=O)cc2)c1)Nc1cncc2ccccc12,1.99 µM
20,Cc1cc(C(=O)N2CCC(C3CCNC3)CC2)cc(S(=O)(=O)N(C)C)c1C (stereo not given),> 99.5 µM
21,CCC(C)(C)CCN(Cc1ccsc1)C(=O)Cn1nnc2ccccc21,78.5 µM
22,CC(C)(COP(=O)(O)OP(=O)(O)OC[C@H]1O[C@@H](n2cnc3c(N)ncnc32)[C@H](O)[C@@H]1OP(=O)(O)O)[C@@H](O)C(=O)NCCC(=O)NCCSC(=O)CCC(=O)O (stereo in doubt),> 99 µM
23,Cn1cncc1C(=O)N(c1ccc(C(C)(C)C)cc1)C(C(=O)NCCc1cccc(F)c1)c1cccnc1 (stereo not given),> 99.5 µM
24,O=C(Cc1ccncc1Cl)Nc1cncc2ccccc12,52.6 µM
25,N#Cc1cccc(NC(=O)Nc2cncc(N)c2)c1,54.3 µM

row,SMILES,IC50
1,CNC(=O)CN1Cc2ccc(Cl)cc2C2(CCN(c3cncc4ccc(F)cc34)C2=O)C1 (stereo not given),0.267 µM
2,NS(=O)(=O)NCCNS(=O)(=O)c1ccccc1[N+](=O)[O-],> 99.5 µM
3,Cn1ncc2cc(N(C(=O)c3cnc[nH]3)C(C(=O)NCCc3cccc(F)c3)c3cccnc3)ccc21 (stereo not given),> 99 µM
4,Cc1cc(N2CCC(C)N(Cc3ccccc3)CC2)n2ncnc2n1 (stereo not given),> 99.5 µM
5,COc1ccccc1N1CCN(c2cc(Cl)cc(CC(=O)Nc3cncc4ccccc34)c2)CC1,2.98 µM
6,O=C(Cc1cc(Cl)cc(Nc2cncc(Br)c2)c1)Nc1cncc2ccccc12,2.16 µM
7,CCCNC(=O)CN1CC(C(=O)Nc2cncc3ccccc23)c2cc(Cl)ccc2C1=O (stereo not given),0.0864 µM and 0.174 µM
8,O=C(Cc1cccc(Cl)c1)Nc1c(O)cnc2ccccc12,8.44 µM
9,CC1CN(Cc2cccc(Cl)c2)CCN1C(=O)CCl (stereo not given),7.73 µM
10,O=C(Cc1cc(Cl)cc(OC2CC(=O)N2)c1)Nc1cc(=O)[nH]c2ccccc12 (stereo not given),83.3 µM
11,O=C(Cc1cc(Cl)cc(Nc2ncccc2OCc2ccccc2)c1)Nc1cncc2ccccc12,2 µM
12,N#CC1(CS(=O)(=O)N2Cc3ccc(Cl)cc3C3(CCN(c4cncc5ccccc45)C3=O)C2)CCOCC1 (stereo not given),0.338 µM
13,O=C(Nc1cncc2ccccc12)C1CCCc2ccc(Cl)cc21 (stereo not given),0.324 µM
14,Cc1cn2c(CNC(=O)c3cnn4ccccc34)c(C)nc2s1,> 99.5 µM
15,COc1cc(N(C(=O)c2cnc[nH]2)C(C(=O)NCCc2cccc(F)c2)c2cccnc2)ccc1S(=O)(=O)N(C)C (stereo not given),> 99 µM
16,CC(NC(=O)CN)(C(=O)Nc1cncc2ccccc12)c1ccc(Cl)c(Cl)c1 (stereo not given),6.21 µM and 1.84 µM
17,O=C(Cc1cc(Cl)cc(Nc2ccccc2OCC(F)(F)F)c1)Nc1cncc2ccccc12,1.96 µM
18,O=C(c1cc(=O)cc[nH]1)N1CCN(c2cccc(Cl)c2)CC1,> 99.5 µM
19,O=C(c1ccnn1C1CC1)N1Cc2ccc(Cl)cc2C2(CCN(c3cncc4ccccc34)C2=O)C1 (stereo not given),0.163 µM
20,O=C(NCCc1cccc(F)c1)C(c1cccnc1)N(C(=O)c1cnc[nH]1)C1CCN(c2ccccc2)C1 (stereo not given),> 99 µM
21,O=C(NCC(c1ccccc1)c1c[nH]c2ccccc12)c1cnccn1 (stereo not given),> 99.5 µM
22,COc1ccc(C(Cc2ccsc2)C(=O)Nc2n[nH]c3ccccc23)cc1 (stereo not given),> 99.5 µM
23,Nc1cncc(NC(=O)C2CCOc3ccc(Cl)cc32)c1C1CC1 (stereo not given),4.95 µM
24,CNC(=O)CN1CC2(CCN(c3cncc4cc(F)ccc34)C2=O)c2cc(Cl)ccc2C1=O (stereo not given),0.426 µM
25,Cc1ccncc1OCCNC(=O)C(C)(C)c1cccc(Cl)c1,> 99.5 µM

row,SMILES,IC50
1,CS(=O)(=O)Nc1cccc(C2=NN(C(=O)CCl)C(c3ccccc3)C2)c1 (stereo not given),5.83 µM
2,Cc1ccc(Nc2ccccc2C(=O)N2CCC(C3CCNC3)CC2)cc1 (stereo not given),> 99.5 µM
3,O=C1CCc2cc(C(=O)N3CCC(C4CCNC4)CC3)ccc2N1 (stereo not given),> 99.5 µM
4,COC(OC)C(=O)N1CCN(Cc2cccc(Cl)c2)CC1,93.9 µM and 94.3 µM
5,O=C(NCCc1ccccc1)[C@@H](c1ccccc1)N1Cc2ccccc2C1=O (stereo in doubt),> 99.5 µM
6,C=CC(=O)N1CCN(S(=O)(=O)c2cccs2)CC1,> 99.5 µM
7,C=CC(=O)NCCC(=O)N(Cc1ccccc1)Cc1nc2ccccc2c(=O)[nH]1,> 99.5 µM
8,O=C1CCN(S(=O)(=O)c2cccs2)CC1,> 99.5 µM
9,C[C@@H]1NC(=O)c2ccc(Cl)cc2[C@@H]1C(=O)Nc1cncc2ccccc12 (stereo in doubt),0.454 µM
10,O=C(Cc1cc(Cl)cc(Nc2ccc(C(F)(F)F)cn2)c1)Nc1cncc2ccccc12,3.96 µM
11,CNC(=O)Nc1ccc(N(C(=O)c2cocn2)C(C(=O)NCCc2cccc(F)c2)c2cccnc2)cc1 (stereo not given),> 99.5 µM
12,CCOC(=O)CCNC(=O)C(c1cccnc1)N(C(=O)c1cocn1)c1ccc(C(C)(C)C)cc1 (stereo not given),2.8 µM
13,CC(CCC(OC1OC(COC2OC(CO)C(O)C(O)C2O)C(O)C(O)C1O)C(C)(C)O)C1CCC2(C)C3CC=C4C(CCC(O)C4(C)C)C3(C)C(O)CC12C (stereo not given),> 99.5 µM
14,CCS(=O)(=O)N1Cc2ccc(Cl)cc2C(C(=O)Nc2cncc3ccccc23)C1 (stereo not given),0.242 µM
15,O=C1C(=O)N(Cc2ccccc2)c2ccc([N+](=O)[O-])cc21,> 99.5 µM
16,COCc1csc(N(C(=O)c2cocn2)C(C(=O)NCCc2cccc(F)c2)c2cccnc2)n1 (stereo not given),> 99.5 µM
17,CC(NC(=O)Cc1ccc(-n2cnnn2)cc1)(C(=O)Nc1cncc2ccccc12)c1ccc(Cl)c(Cl)c1 (stereo not given),3.42 µM and 6.3 µM
18,O=C(CN1CC(C(=O)Nc2cncc3ccccc23)c2cc(Cl)ccc2C1=O)NCC(F)(F)F (stereo not given),0.34 µM
19,Cn1c(C(=O)N(c2ccc(C(C)(C)C)cc2)C(C(=O)NCCc2cccc(F)c2)c2cccnc2)c[nH]c1=O (stereo not given),> 99.5 µM
20,O=C(Nc1ccccc1)[C@@H](c1ccccc1)N1Cc2ccccc2C1=O (stereo in doubt),> 99.5 µM
21,CCCC(C(=O)Nc1cnccc1C)c1cccc(Cl)c1 (stereo not given),17.9 µM and 16.8 µM
22,Cc1ccnc(NC(=O)C2CCOc3ccc(Cl)cc32)c1N (stereo not given),71.6 µM
23,CNC(=O)CN1Cc2ccc(Cl)cc2C(C(=O)Nc2cncc3ccc(C(C)(C)O)cc23)C1 (stereo not given),0.564 µM
24,O=C(CN(C(=O)Cc1cccnc1)c1ccc(-c2ncccn2)cc1)N1CCNCC1,> 99.5 µM
25,CC(C)(C)c1ccc(N(C(=O)c2cc(O)cc(=O)o2)C(C(=O)NCCc2cccc(F)c2)c2cccnc2)cc1 (stereo not given),> 99.5 µM

row,SMILES,IC50
1,O=C1C(=O)N(Cc2ccc(Br)cc2)c2ccccc21,> 198 µM
2,CS(=O)(=O)c1ccc2c(NC(=O)C34CC(C3)Oc3ccc(Cl)cc34)cncc2c1,22.9 µM
3,Cc1ccncc1NC(=O)Cc1cc(Cl)cc(OCc2cc(-c3ccc(Cl)cc3)no2)c1,> 99.5 µM
4,CNC(=O)CN1CC(C(=O)Nc2cncc3c2CCCC3)c2cc(Cl)ccc2C1=O (stereo not given),0.448 µM
5,COc1cccc(CN2CCN(C(=O)c3cc(=O)[nH]c4ccccc34)CC2)c1,27.3 µM
6,N#CC1(CS(=O)(=O)N2Cc3ccc(Cl)cc3C3(CCN(c4cncc5ccc(OCCN6CCOCC6)cc45)C3=O)C2)CC1 (stereo not given),0.187 µM
7,COc1ccccc1OCCNC(=O)C1CC(=O)Nc2ccccc21 (stereo not given),> 99.5 µM
8,O=C1CN(C(=O)Cc2cccc(Cl)c2)Cc2ccccc21,> 99.5 µM
9,O=C(Cc1cccc(Cl)c1)NC1CC(=O)c2ccccc21 (stereo not given),53.8 µM
10,CNC(=O)CN1Cc2ccc(Cl)cc2C(C(=O)Nc2cncc3cc(COC)ccc23)C1 (stereo not given),0.119 µM
11,N#Cc1cccc(NC(=O)[C@@H]2CN(C(=O)CCl)CCN2S(=O)(=O)c2ccsc2)c1 (stereo in doubt),0.416 µM
12,O=C(Nc1cccc(F)c1)[C@@H](c1ccccc1)N1Cc2ccccc2C1=O (stereo in doubt),> 99.5 µM
13,O=C(Cn1nnc2ccccc21)N(Cc1cccc(Cl)c1)c1ccc(N2CCOCC2)cc1,3.7 µM
14,COCc1ccc2cncc(NC(=O)Cc3cccc(Cl)c3)c2c1,2.21 µM
15,CC1(C(=O)Nc2cncc3ccc(F)cc23)CNS(=O)(=O)c2ccc(Cl)cc21 (stereo not given),0.441 µM
16,O=C1NC(c2ccc(Cl)c(Cl)c2)C(=O)N1c1cncc2ccccc12 (stereo not given),8.46 µM
17,O=C(Nc1[nH]nc2cccc(F)c12)C1CCOc2ccc(Cl)cc21 (stereo not given),> 99.5 µM
18,N#CC1(CS(=O)(=O)N2Cc3ccc(Cl)cc3C3(CCN(c4cncc5ccc(C(F)F)cc45)C3=O)C2)CC1 (stereo not given),0.354 µM
19,O=C(Cc1cccc(Cl)c1)Nc1cncc2c1CCC2,5.16 µM
20,C=CC(=O)N1CCN(S(=O)(=O)c2ccccc2)CC1,> 99.5 µM
21,CC(C)c1nc(CN(C)c2cc(Cl)cc(CC(=O)Nc3cncc4ccccc34)c2)cs1,2.63 µM
22,O=C(c1ccc2nc(C(F)F)[nH]c2c1)N1CCC(C2CCNC2)CC1 (stereo not given),> 99.5 µM
23,c1ccc(-c2cc(Sc3nnc(-c4cccs4)o3)n3ncnc3n2)cc1,0.221 µM
24,Cc1cccc(NC(=O)[C@@H](c2ccccc2)N2Cc3ccccc3C2=O)n1 (stereo in doubt),> 99.5 µM
25,O=C(Cc1cccc(Cl)c1)Nc1cncc2[nH]ccc12,6.19 µM
